From patent US20030170218A1, “Fungicide and method for producing the same” (Biobank Co., Ltd., priority 2002, published 2003)

Tests used:
[1] = system: enterohemorrhagic E. coli O-157; settings: Japanese Patent Laid-Open No. 300284/2000; cited from earlier work
[2] = system: Trichophyton rubrum; test: Agar dilution method, colony growth on sample plate; assay type: cell-based; settings: T. rubrum, 28° C., 12 days; for Diameter of the colony: 2 mL sample + 18 mL Sabourand agar medium, 5 mm colony disk; for Antifungal activity: 100-[(x-5)/(y-5)x100] vs standard plate, 2 mL sample + 18 mL medium
[3] = system: Trichophyton mentagrophytes; test: as above; assay type: cell-based; settings: T. mentagrophytes, 28° C., 12 days; for Diameter of the colony: 2 mL sample + 18 mL Sabourand agar medium, 5 mm colony disk; for Antifungal activity: 100-[(x-5)/(y-5)x100] vs standard plate, 2 mL sample + 18 mL medium
[4] = pH measurement; assay type: physicochemical; settings: sample plate: 2 mL sample + 18 mL Sabourand agar medium
[5] = system: Rosellinia necatrix; test: Agar dilution method on potato dextrose agar; assay type: cell-based; settings: 2 mL sample + 18 mL potato dextrose agar
[6] = system: Helicobasidium mompa; test: Agar dilution method on potato dextrose agar; assay type: cell-based; settings: 2 mL sample + 18 mL potato dextrose agar
[7] = system: Fusarium oxysporum; test: Agar dilution method on potato dextrose agar; assay type: cell-based; settings: 2 mL sample + 18 mL potato dextrose agar
[8] = system: Pythium graminicola; test: Agar dilution method on potato dextrose agar; assay type: cell-based; settings: 2 mL sample + 18 mL potato dextrose agar

SMILES | Diameter of the colony [2] | Antifungal activity [2] | Diameter of the colony [3] | Antifungal activity [3] | PH of the Medium [4] | also measured
O=C(O)C(O)Cc1ccccc1 (stereo not shown) [phenyllactic acid] |  |  |  |  |  | antibacterial activity [1]: strong antibacterial activity
CC(O)C(=O)O (stereo not shown) [Comp. Ex. 7, lactic acid] | 18.0 ± 5.0 mm | 66% | 17.7 ± 1.4 mm | 74% | 3.46 | 
CC(=O)O [Comp. Ex. 8, acetic acid] | 5.4 ± 0.3 mm | 99% | 5.7 ± 0.3 mm | 99% | 4.12 | 
O=C(O)CC(=O)O [Comp. Ex. 6, malonic acid] | 5.5 ± 0.0 mm | 99% | 5.5 ± 0.0 mm | 99% | 2.91 | 
O=C(O)CC(O)(CC(=O)O)C(=O)O [Comp. Ex. 3, citric acid] | 26.5 ± 1.5 mm | 44% | 14.8 ± 0.7 mm | 80% |  | 
O=C(O)C(=O)O [Comp. Ex. 5, oxalic acid] | 36.5 ± 1.1 mm | 18% | 17.6 ± 0.1 mm | 74% | 4.30 | 
O=C([O-])c1ccccc1C(=O)O.[K+] [Comparative Example 12, potassium hydrogen phthalate] |  |  |  |  |  | Diameter of the colony ([5]; […]): 70.3 ± 0.0 mm; Antifungal activity ([5]; vs standard plate): 5%; Diameter of the colony ([6]; […]): 8.1 ± 0.7 mm; Antifungal activity ([6]; vs standard plate): 95%; Diameter of the colony ([7]; […]): 54.1 ± 4.1 mm; Antifungal activity ([7]; vs standard plate): 5%; Diameter of the colony ([8]; […]): 13.1 ± 0.6 mm; Antifungal activity ([8]; vs standard plate): 88%
O=C([O-])c1ccccc1C(=O)O.[K+] [Comp. Ex. 2, potassium hydrogen phthalate] | 21.0 ± 1.5 mm | 58% | 51.1 ± 2.4 mm | 6% |  | 
